Here are results for four compounds from patent US20100160431A1, “Methods and Compositions for the Treatment of Viral Infections” (priority 2006, published 2010).

The nature of data set [1]: Release profile of amantadine and oseltamivir combination (USP II Paddle system, water). The data set is classed as physicochemical. The source says: The cumulative fraction is the amount of drug substance released from the formulation matrix to the serum or gut environment (e.g., U.S. Pat. No. 4,839,177) or as measured with a USP II Paddle system using water as the dissolution medium.

The conditions of data set [2]: cited from earlier work; for Human PK T½ / Tmax: humans.
A short description of data set [3]: Time to steady state concentration with extended release amantadine or rimantadine. The conditions noted are these: patient with influenza A; 100 mg or more once daily; formulated as in Example 5.
The conditions of data set [4]: in vivo; cited from earlier work.

For orientation: Tmax means the time at which the peak concentration occurs.

Turning to `CCOC(=O)C1=C[C@@H](OC(CC)CC)[C@H](NC(C)=O)[C@@H](N)C1` [oseltamivir/TAMIFLU ®, oseltamivir], the cum. fraction is given as 0.1 in data set [1] (Time 1); 0.15 in data set [1] (Time 2); 0.2 in data set [1] (Time 4); 0.35 in data set [1] (Time 8); 0.5 in data set [1] (Time 12); 0.65 in data set [1] (Time 16). Besides, the cum. fraction in data set [1] (Time 20) came out at 0.8; in data set [1] (Time 24) it was 1. In data set [2] (head of Table 4), the T½ entry is on record as “T½ = 3 hrs”. For the same compound, in data set [2], the “Human PK T½” value is 3 h. Also, the “Tmax” value in data set [2] is 3 to 4 h.

Take `CC(N)C12CC3CC(CC(C3)C1)C2` (centres unmarked) [Rimantadine, rimantadine]: the “time to therapeutically effective steady state serum concentration” value in data set [3] is given as “three”. In addition, the “Dose Dependent Toxicity” value in data set [4] is “Insomnia”.

As for `CC(=O)N[C@H]1[C@H]([C@H](O)[C@H](O)CO)OC(C(=O)O)=C[C@@H]1NC(=N)N` [zanamivir/RELENZA ®, zanamivir], in data set [2], the “Human PK T½” value is 2.5 to 5.1 h and the “Tmax” value is 1 to 2 h.

In the case of `NC12CC3CC(CC(C3)C1)C2` [Amantadine, amantadine], the cum. fraction in data set [1] (Time 1) is on record as 0.2; in data set [1] (Time 2) it was 0.3; in data set [1] (Time 4), 0.4; in data set [1] (Time 8), 0.5; in data set [1] (Time 12) it was 0.6; in data set [1] (Time 16) it was 0.7. The figures for the cum. fraction in data set [1] (Time 20) and in data set [1] (Time 24) were 0.8 and 0.9, respectively.
